Reference: the supplement of paper PMC13380429

How the values were obtained:
Settings in all cases: 72 h
[1] = system: Caco-2; assay: drug sensitivity score (DSS) for viability; higher = more toxic; extreme values may be limits of the assay
[2] = system: Vero E6; assay: as above
[3] = system: Calu-3; assay: as above
[4] = system: U2OS; assay: as above
[5] = system: Caco-2; assay: relative viability EC50 (midpoint between 100% and the lowest measured viability); higher = less toxic
[6] = system: Vero E6; assay: as above
[7] = system: Calu-3; assay: as above
[8] = system: U2OS; assay: as above
[9] = system: Caco-2; assay: cell viability relative to DMSO; higher = less toxic
[10] = system: Vero E6; assay: as above
[11] = system: Calu-3; assay: as above
[12] = system: U2OS; assay: as above
[13] = system: HepG2; assay: drug sensitivity score (DSS) for viability; higher = more toxic; extreme values may be limits of the assay
[14] = system: HepG2; assay: relative viability EC50 (midpoint between 100% and the lowest measured viability); higher = less toxic
[15] = system: HepG2; assay: cell viability relative to DMSO; higher = less toxic

Row | Structure (SMILES) | drug sensitivity score [1] | drug sensitivity score [2] | drug sensitivity score [3] | drug sensitivity score [4] | relative viability EC50 [5] [µM] | relative viability EC50 [6] [µM] | relative viability EC50 [7] [µM] | relative viability EC50 [8] [µM] | cell viability ([9]; 1 nM) [%] | cell viability ([9]; 10 nM) [%] | cell viability ([9]; 100 nM) [%] | cell viability ([9]; 1000 nM) [%] | cell viability ([9]; 10000 nM) [%] | cell viability ([10]; 1 nM) [%] | cell viability ([10]; 10 nM) [%] | cell viability ([10]; 100 nM) [%] | cell viability ([10]; 1000 nM) [%] | cell viability ([10]; 10000 nM) [%] | cell viability ([11]; 1 nM) [%] | cell viability ([11]; 10 nM) [%] | cell viability ([11]; 100 nM) [%] | cell viability ([11]; 1000 nM) [%] | cell viability ([11]; 10000 nM) [%] | cell viability ([12]; 1 nM) [%] | cell viability ([12]; 10 nM) [%] | cell viability ([12]; 100 nM) [%] | cell viability ([12]; 1000 nM) [%] | cell viability ([12]; 10000 nM) [%] | drug sensitivity score [13] | relative viability EC50 [14] [µM] | cell viability ([15]; 1 nM) [%] | cell viability ([15]; 10 nM) [%] | cell viability ([15]; 100 nM) [%] | cell viability ([15]; 1000 nM) [%] | cell viability ([15]; 10000 nM) [%]
1 | COc1cc2c(cc1OCCCN1CCCC1)N=C(N)C21CCC1 [A-366] | 0 | 0 | 0 | 0 | > 10 | > 10 | > 10 | > 10 | 91.2 | 95.4 | 97.5 | 104 | 92 | 101 | 98.1 | 93.6 | 94.4 | 97.8 | 97.3 | 106 | 102 | 103 | 95.4 | 103 | 102 | 98.9 | 105 | 95.2 | – | – | – | – | – | – | –
2 | CN1CCN(C2=Cc3ccccc3Oc3ccc(Cl)cc32)CC1 [2-CMDO] | 0 | 0 | 0 | 0 | > 10 | > 10 | > 10 | > 10 | 107 | 90.6 | 99.7 | 103 | 92.3 | 102 | 99.5 | 103 | 103 | 93.3 | 103 | 102 | 98.2 | 112 | 95.6 | 101 | 98.6 | 96.7 | 100 | 90.1 | – | – | – | – | – | – | –
3 | CC(=O)Oc1c(C)cc(OCC(O)CNC(C)C)c(C)c1C (stereo not drawn) [metipranolol] | 1.3 | 1.6 | 0 | 0 | – | > 10 | > 10 | > 10 | 73.8 | 84.6 | 102 | 98.7 | 70.3 | 103 | 107 | 94.6 | 85.8 | 97.5 | 94.6 | 89.8 | 97.7 | 96.1 | 92.9 | 99.1 | 97.3 | 96.2 | 93.9 | 93.8 | 1.5 | > 10 | 101 | 102 | 105 | 84 | 93.3
4 | CC(C)(OCc1nn(Cc2ccccc2)c2ccccc12)C(=O)O [bindarit] | 0 | 0 | 0 | – | > 10 | > 10 | > 10 | – | 104 | 101 | 108 | 102 | 96.8 | 102 | 105 | 100 | 107 | 91.4 | 99 | 95.5 | 106 | 95.1 | 104 | – | – | – | – | – | 0 | > 10 | 97.2 | 96.4 | 100 | 99.2 | 100
5 | C=CCN1CCc2cc(O)c(O)cc2[C@H](c2ccccc2)C1 | 0.7 | – | 0 | 0 | > 10 | – | > 10 | > 10 | 95.1 | 91.8 | 86.5 | 99.5 | 79.4 | – | – | – | – | – | 89.8 | 92 | 103 | 103 | 99 | 99.7 | 99.3 | 96.9 | 102 | 92.8 | 0.5 | > 10 | 100 | 93.3 | 105 | 92.5 | 86.9
6 | Cc1cnc(CNC(=O)c2c(=O)c3ccc(N4CCCN(C)CC4)nc3n3c2sc2ccccc23)cn1 [CX-5461] | 0.5 | 4.7 | 0.3 | 0 | > 10 | – | > 10 | > 10 | 106 | 114 | 95.5 | 121 | 75.9 | 114 | 92.3 | 106 | 84.2 | 53.3 | 93.9 | 105 | 100 | 100 | 84 | 99.5 | 102 | 96.9 | 106 | 98.4 | 7.6 | 1.16 | 110 | 108 | 110 | 71.6 | 30.5
7 | COc1ccc2c(O[C@@H]3C[C@H]4C(=O)N[C@]5(C(=O)NS(=O)(=O)C6CC6)C[C@H]5/C=C\CCCCN(C)C(=O)[C@@H]4C3)cc(-c3nc(C(C)C)cs3)nc2c1C [simeprevir] | 1.1 | 0 | 0 | 0 | – | > 10 | > 10 | > 10 | 94.8 | 100 | 112 | 102 | 70.8 | 102 | 105 | 95.4 | 101 | 102 | 94.9 | 99.7 | 88.7 | 100 | 102 | 104 | 98.8 | 99.9 | 99.4 | 105 | 0.4 | > 10 | 102 | 99.4 | 92.7 | 101 | 81.5
8 | CCc1cnc(N2CCC(c3nc(COc4ccc(-n5cnnn5)cc4)cs3)CC2)nc1 [MBX-2982] | 2.1 | 0.9 | 0 | 0 | – | > 10 | > 10 | > 10 | 95.8 | 107 | 86.9 | 96.1 | 67.5 | 102 | 106 | 105 | 97.2 | 80.4 | 97.5 | 92 | 109 | 102 | 103 | 103 | 94.8 | 96.7 | 96.2 | 93.7 | 3.5 | 3.13 | 97.4 | 94.6 | 93.2 | 99.7 | 36
